Assay results as given in PubChem BioAssay (NCI).
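Dose response: 5 concentrations. Exposure: 48 h. Format: 96-well plates. Endpoint: linear interpolation; highest concentration if not reached. At the GI50, growth is halved. TGI marks complete inhibition of growth.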

What was measured:
Experiment in all cases: growth of human tumour cells (NCI), 48 h
RXF 393 renal = tested on: RXF 393 renal
A498 renal = tested on: A498 renal
UACC-257 melanoma = tested on: UACC-257 melanoma
SW-620 colon = tested on: SW-620 colon
SR leukemia = tested on: SR leukemia
SK-OV-3 ovarian = tested on: SK-OV-3 ovarian
BT-549 breast = tested on: BT-549 breast
CAKI-1 renal = tested on: CAKI-1 renal
SF-295 CNS = tested on: SF-295 CNS
UACC-62 melanoma = tested on: UACC-62 melanoma
NCI-H23 lung = tested on: NCI-H23 lung
CCRF-CEM leukemia = tested on: CCRF-CEM leukemia
SK-MEL-5 melanoma = tested on: SK-MEL-5 melanoma
A549 NSCLC = tested on: A549 NSCLC
K-562 leukemia = tested on: K-562 leukemia
U251 CNS = tested on: U251 CNS
SN12C renal = tested on: SN12C renal
TK-10 renal = tested on: TK-10 renal
IGROV1 ovarian = tested on: IGROV1 ovarian
SF-268 CNS = tested on: SF-268 CNS
UO-31 renal = tested on: UO-31 renal
MCF7 breast = tested on: MCF7 breast
M14 melanoma = tested on: M14 melanoma
KM12 colon = tested on: KM12 colon
COLO 205 colon = tested on: COLO 205 colon
MALME-3M melanoma = tested on: MALME-3M melanoma
ACHN renal = tested on: ACHN renal
RPMI-8226 leukemia = tested on: RPMI-8226 leukemia
HOP-92 NSCLC = tested on: HOP-92 NSCLC
LOX IMVI melanoma = tested on: LOX IMVI melanoma
HOP-62 NSCLC = tested on: HOP-62 NSCLC
NCI-H226 lung = tested on: NCI-H226 lung
SF-539 CNS = tested on: SF-539 CNS
HCT-15 colon = tested on: HCT-15 colon
OVCAR-3 ovarian = tested on: OVCAR-3 ovarian
OVCAR-5 ovarian = tested on: OVCAR-5 ovarian
786-0 renal = tested on: 786-0 renal
HL-60(TB) leukemia = tested on: HL-60(TB) leukemia
MDA-MB-435 = tested on: MDA-MB-435
MOLT-4 leukemia = tested on: MOLT-4 leukemia
EKVX NSCLC = tested on: EKVX NSCLC
SNB-19 CNS = tested on: SNB-19 CNS
OVCAR-4 ovarian = tested on: OVCAR-4 ovarian
SK-MEL-28 melanoma = tested on: SK-MEL-28 melanoma
DU-145 prostate = tested on: DU-145 prostate
SNB-75 CNS = tested on: SNB-75 CNS
HT29 colon = tested on: HT29 colon
MDA-MB-231 breast = tested on: MDA-MB-231 breast
SK-MEL-2 melanoma = tested on: SK-MEL-2 melanoma
HCC-2998 colon = tested on: HCC-2998 colon
NCI-H460 lung = tested on: NCI-H460 lung
NCI/ADR-RES ovarian = tested on: NCI/ADR-RES ovarian
OVCAR-8 ovarian = tested on: OVCAR-8 ovarian
PC-3 prostate = tested on: PC-3 prostate
T-47D breast = tested on: T-47D breast

SMILES: COc1cc([C@@H]2c3cc4c(cc3C[C@@H]3COC(=O)C32)OCO4)cc(OC)c1O (stereo partly specified)
- TGI (RXF 393 renal): 0.0635 µM
- TGI (A498 renal): > 100 µM
- TGI (UACC-257 melanoma): > 100 µM
- TGI (SW-620 colon): > 100 µM
- TGI (SR leukemia): 0.0503 µM
- TGI (SK-OV-3 ovarian): 2.47 µM
- TGI (BT-549 breast): > 100 µM
- TGI (CAKI-1 renal): 0.823 µM
- TGI (SF-295 CNS): 0.0585 µM
- TGI (UACC-62 melanoma): > 52.1 µM
- TGI (NCI-H23 lung): > 100 µM
- TGI (CCRF-CEM leukemia): 0.0526 µM
- TGI (SK-MEL-5 melanoma): 1.04 µM
- TGI (A549 NSCLC): > 93.4 µM
- TGI (K-562 leukemia): > 100 µM
- TGI (U251 CNS): > 100 µM
- TGI (SN12C renal): > 77.4 µM
- TGI (TK-10 renal): > 100 µM
- TGI (IGROV1 ovarian): 0.0791 µM
- TGI (SF-268 CNS): > 32.6 µM
- TGI (UO-31 renal): > 100 µM
- TGI (MCF7 breast): 0.071 µM
- TGI (M14 melanoma): > 100 µM
- TGI (KM12 colon): > 100 µM
- TGI (COLO 205 colon): 0.0933 µM
- TGI (MALME-3M melanoma): 0.07 µM
- TGI (ACHN renal): 23.5 µM
- TGI (RPMI-8226 leukemia): 0.137 µM
- TGI (HOP-92 NSCLC): 34.9 µM
- TGI (LOX IMVI melanoma): 15.7 µM
- TGI (HOP-62 NSCLC): 24.3 µM
- TGI (NCI-H226 lung): > 59.9 µM
- TGI (SF-539 CNS): 0.0443 µM
- TGI (HCT-15 colon): > 100 µM

SMILES: CN(C)c1ccc(/C=c2/c3ccccc3n3c2cc(C24CC5CC(CC(C5)C2)C4)[n+]3C)cc1
- TGI (A498 renal): 1.08 µM
- TGI (SW-620 colon): 1.44 µM
- TGI (SK-OV-3 ovarian): 1.48 µM
- TGI (OVCAR-3 ovarian): 1.6 µM
- TGI (OVCAR-5 ovarian): 1.61 µM
- TGI (CAKI-1 renal): 1.04 µM
- TGI (CCRF-CEM leukemia): > 100 µM
- TGI (A549 NSCLC): 1.09 µM
- TGI (SN12C renal): 1.12 µM
- TGI (TK-10 renal): 1.65 µM
- TGI (786-0 renal): 0.658 µM
- TGI (HL-60(TB) leukemia): 0.666 µM
- TGI (MDA-MB-435): 0.694 µM
- TGI (MOLT-4 leukemia): > 100 µM
- TGI (EKVX NSCLC): 1.58 µM
- TGI (SNB-19 CNS): 1.36 µM
- TGI (KM12 colon): 0.405 µM
- TGI (COLO 205 colon): 0.32 µM
- TGI (ACHN renal): 1.23 µM
- TGI (RPMI-8226 leukemia): > 100 µM
- TGI (OVCAR-4 ovarian): 0.731 µM
- TGI (SK-MEL-28 melanoma): 2.16 µM
- TGI (NCI-H226 lung): 1.49 µM
- TGI (DU-145 prostate): 1.84 µM

SMILES: Nc1ccc2c3c(n(CCCCl)c(=O)c2c1)-c1cc2c(cc1C3=O)OCO2
- GI50 (RXF 393 renal): 55.1 µM
- TGI (RXF 393 renal): > 100 µM
- GI50 (UACC-257 melanoma): > 100 µM
- TGI (UACC-257 melanoma): > 100 µM
- GI50 (SW-620 colon): > 100 µM
- TGI (SW-620 colon): > 100 µM
- GI50 (SR leukemia): 0.0268 µM
- TGI (SR leukemia): > 100 µM
- GI50 (SK-OV-3 ovarian): > 100 µM
- TGI (SK-OV-3 ovarian): > 100 µM
- GI50 (OVCAR-3 ovarian): > 100 µM
- TGI (OVCAR-3 ovarian): > 100 µM
- GI50 (OVCAR-5 ovarian): > 100 µM
- TGI (OVCAR-5 ovarian): > 100 µM
- GI50 (CAKI-1 renal): 1.03 µM
- TGI (CAKI-1 renal): > 100 µM
- GI50 (SF-295 CNS): 0.349 µM
- TGI (SF-295 CNS): > 100 µM
- GI50 (UACC-62 melanoma): > 100 µM
- TGI (UACC-62 melanoma): > 100 µM
- GI50 (NCI-H23 lung): 0.562 µM
- TGI (NCI-H23 lung): 25.8 µM
- GI50 (CCRF-CEM leukemia): > 100 µM
- TGI (CCRF-CEM leukemia): > 100 µM
- GI50 (SK-MEL-5 melanoma): 0.12 µM
- TGI (SK-MEL-5 melanoma): 0.714 µM
- GI50 (A549 NSCLC): 7.75 µM
- TGI (A549 NSCLC): > 100 µM
- GI50 (K-562 leukemia): > 100 µM
- TGI (K-562 leukemia): > 100 µM
- GI50 (SNB-75 CNS): > 100 µM
- TGI (SNB-75 CNS): > 100 µM
- GI50 (U251 CNS): > 100 µM
- TGI (U251 CNS): > 100 µM
- GI50 (SN12C renal): > 100 µM
- TGI (SN12C renal): > 100 µM
- GI50 (TK-10 renal): > 100 µM
- TGI (TK-10 renal): > 100 µM
- GI50 (HT29 colon): > 100 µM
- TGI (HT29 colon): > 100 µM
- GI50 (MDA-MB-231 breast): 60.1 µM
- TGI (MDA-MB-231 breast): > 100 µM
- GI50 (SK-MEL-2 melanoma): > 100 µM
- TGI (SK-MEL-2 melanoma): > 100 µM
- GI50 (HCC-2998 colon): > 100 µM
- TGI (HCC-2998 colon): > 100 µM
- GI50 (HL-60(TB) leukemia): > 100 µM
- TGI (HL-60(TB) leukemia): > 100 µM
- GI50 (IGROV1 ovarian): 0.177 µM
- TGI (IGROV1 ovarian): > 100 µM
- GI50 (MDA-MB-435): > 100 µM
- TGI (MDA-MB-435): > 100 µM
- GI50 (NCI-H460 lung): 0.14 µM
- TGI (NCI-H460 lung): > 100 µM
- GI50 (NCI/ADR-RES ovarian): > 100 µM
- TGI (NCI/ADR-RES ovarian): > 100 µM
- GI50 (SF-268 CNS): > 100 µM
- TGI (SF-268 CNS): > 100 µM
- GI50 (UO-31 renal): 48.1 µM
- TGI (UO-31 renal): > 100 µM
- GI50 (MOLT-4 leukemia): 2.14 µM
- TGI (MOLT-4 leukemia): > 100 µM
- GI50 (SNB-19 CNS): > 100 µM
- TGI (SNB-19 CNS): > 100 µM
- GI50 (KM12 colon): 41.6 µM
- TGI (KM12 colon): > 100 µM
- GI50 (OVCAR-8 ovarian): > 100 µM
- TGI (OVCAR-8 ovarian): > 100 µM
- GI50 (COLO 205 colon): > 100 µM
- TGI (COLO 205 colon): > 100 µM
- GI50 (MALME-3M melanoma): 7.79 µM
- TGI (MALME-3M melanoma): > 100 µM
- GI50 (ACHN renal): > 100 µM
- TGI (ACHN renal): > 100 µM
- GI50 (RPMI-8226 leukemia): > 100 µM
- TGI (RPMI-8226 leukemia): > 100 µM
- GI50 (HOP-92 NSCLC): > 100 µM
- TGI (HOP-92 NSCLC): > 100 µM
- GI50 (LOX IMVI melanoma): > 100 µM
- TGI (LOX IMVI melanoma): > 100 µM
- GI50 (PC-3 prostate): > 100 µM
- TGI (PC-3 prostate): > 100 µM
- GI50 (SK-MEL-28 melanoma): > 100 µM
- TGI (SK-MEL-28 melanoma): > 100 µM
- GI50 (T-47D breast): > 100 µM
- TGI (T-47D breast): > 100 µM
- GI50 (HCT-15 colon): > 100 µM
- TGI (HCT-15 colon): > 100 µM

SMILES: COc1ccc(-c2ccc(-c3ccc(C(=N)N)s3)s2)cc1Cl
- GI50 (A498 renal): 1.29 µM
- TGI (A498 renal): 2.6 µM
- GI50 (SR leukemia): 0.299 µM
- TGI (SR leukemia): 1.34 µM
- GI50 (SF-295 CNS): 1.8 µM
- TGI (SF-295 CNS): 3.3 µM
- GI50 (CCRF-CEM leukemia): 1.81 µM
- TGI (CCRF-CEM leukemia): 4.72 µM
- GI50 (SK-MEL-5 melanoma): 1.88 µM
- TGI (SK-MEL-5 melanoma): 3.52 µM
